# According to patent EP4206196A1, “PYRIMIDINE SUBSTITUTED DERIVATIVES AS TYK2 INHIBITORS” (Almirall S.A., priority 2021, dated 2023):
# pIC50, pKd: −log10 of the molar value.
# Assays:
# [1] = molecular target: T1, TYK2 (JH2domain-pseudokinase) (Homo sapiens, UniProt P29597); experiment: TYK2 JH2 domain binding assay (KINOMEscan)
# T1 construct: TYK2 (JH2domain-pseudokinase)-tagged T7 phage strains were prepared in an E. coli host derived from the BL21 strain; made in house; host or cells: E. coli BL21-derived host (T7 phage) or HEK-293 cells
# T1 sequence (P29597 589-875 limits assumed): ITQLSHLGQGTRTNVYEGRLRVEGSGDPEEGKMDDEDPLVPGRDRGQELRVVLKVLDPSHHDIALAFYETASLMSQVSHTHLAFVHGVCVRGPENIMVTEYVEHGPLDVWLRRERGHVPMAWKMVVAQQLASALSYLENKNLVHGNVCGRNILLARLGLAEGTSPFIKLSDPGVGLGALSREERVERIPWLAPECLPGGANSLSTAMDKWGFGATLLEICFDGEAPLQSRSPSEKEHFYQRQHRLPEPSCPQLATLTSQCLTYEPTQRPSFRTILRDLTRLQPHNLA
# Protocol: TYK2 (JH2domain-pseudokinase) KINOMEscan assay. For the assay, TYK2 (JH2domain-pseudokinase)-tagged T7 phage strains were prepared in an E. coli host derived from the BL21 strain.E. coli were grown to log-phase and infected with T7 phage and incubated with shaking at 32°C until lysis. The lysates were centrifuged and filtered to remove cell debris. The remaining TYK2 (JH2domain-pseudokinase) were produced in HEK-293 cells and subsequently tagged with DNA for qPCR detection. Streptavidin-coated magnetic beads were treated with biotinylated small molecule ligands for 30 minutes at room temperature to generate affinity resins for kinase assays. The liganded beads were blocked with excess biotin and washed with blocking buffer (SeaBlock (Pierce), 1% BSA, 0.05% Tween 20, 1 mM DTT) to remove unbound ligand and to reduce non-specific binding. Binding reactions were assembled by combining TYK2 (JH2domain-pseudokinase), liganded affinity beads, and test compounds in 1x binding buffer (20% SeaBlock, 0.17x PBS, 0.05% Tween 20, 6 mM DTT). Test compounds were prepared as 111X stocks in 100% DMSO. Kds were determined using an 11-point 3-fold compound dilution series with three DMSO control points. All compounds for Kd measurements are distributed by acoustic transfer (non-contact dispensing) in 100% DMSO. The compounds were then diluted directly into the assays such that the final concentration of DMSO was 0.9%. All reactions performed in polypropylene 384-well plate. Each was a final volume of 0.02 ml. The assay plates were incubated at room temperature with shaking for 1 hour and the affinity beads were washed with wash buffer (1x PBS, 0.05% Tween 20). The beads were then re-suspended in elution buffer (1x PBS, 0.05% Tween 20, 0.5 µM non-biotinylated affinity ligand) and incubated at room temperature with shaking for 30 minutes. The kinase concentration in the eluates was measured by qPCR. […]
# An 11-point 3-fold serial dilution of each test compound was prepared in 100% DMSO at 100x final test concentration and subsequently diluted to 1x in the assay (final DMSO concentration = 1%). Most Kds were determined using a compound top concentration = 30,000 nM. If the initial Kd determined was < 0.5 nM (the lowest concentration tested), the measurement was repeated with a serial dilution starting at a lower top concentration.
# Curves were fitted using a non-linear least square fit with the Levenberg-Marquardt algorithm. […] TABLE 1: Kd Affinities for Tyk2 JH2 Domain Binding Assay.
# [2] = tested on: STAT1/3 through TYK2/JAK1; experiment: IFNa induced STAT phosphorylation in HEK293 cells (SIE-bla reporter gene); assay type: cell-based; conditions: Homo sapiens, HEK293; HEK293T-sie-bla cells, IFNa at EC80, 4 hours; read-out: Inhibition of IFNa induced STAT phosphorylation HEK293 cells IC50
# Protocol: Stimulation of HEK293T-sie-bla cells with interferon alpha (INFa) activates the signaling pathway of STAT1/3 through TYK2/JAK1. In this assay, measurement of the activity of the reporter gene […]-lactamase expression was used as the readout.
# CellSensorTM SIE-bla HEK293T cell line were purchased from Thermo Fisher Scientific (ref. #K1649B) and cultured as specified by the provider. A number of 30.000 cells per well (40 µl) were plated in a 384-well plate (Corning ref.# 3712) and cultured overnight at 37°C with 5% CO2 in a complete Optimem media (ThermoFisher ref. #11058-021) containing 0.5% (v/v) heat inactivated dialyzed FBS (Life Technologies ref. #26400044), 10 µM non-essential aminoacids NEAA (Sigma ref. #M7145), 100 µM Sodium Pyruvate (Gibco ref. #11360-039) and 100 U/mL Penicillin (Sigma ref. #P0781). Compounds were initially dissolved in 100% DMSO. Compound curves were then prepared using a 1/5 serial dilution (10 dilutions). The dilutions were directly diluted in complete Optimem media at 40-fold their final concentration in 20% DMSO. IFNa initial solution (R&D systems ref. #11100-1) was prepared at 10-fold its EC80 in complete Optimem media. Compounds and IFNa were added simultaneously to the wells with cells and incubated during 4 hours at 37°C (the final DMSO was 0.1%). The […]-lactamase substrate (LifeTechnologies ref.#K1138) was prepared at 6-fold its final concentration as specified by the provider. Then 10 µL of the mixture was added to the wells to stop the stimulation. Plate was left in the dark over-night. Then a FRET reading was performed on an appropriate plate reader.
# All experiments were analysed using an ExcelFit template and the four-parameter log equation. […] TABLE 2: IC50 Inhibitions of IFNa induced STAT phosphorylation in HEK293 cells
pKd [1],pIC50 [2],SMILES
8.00 to 9.00,< 6.00,"COc1c(C#N)cccc1Nc1cc(Nc2cc(C)nc(C)n2)ncn1 [Example 16, 3-[[6-[(2,6-dimethylpyrimidin-4-yl)amino]pyrimidin-4-yl]amino]-2-methoxy-benzonitrile]"
8.00 to 9.00,< 6.00,"COc1c(Nc2cc(Nc3cc(C)nc(C)n3)ncn2)cccc1C(F)(F)F [Example 18, N6-(2,6-dimethylpyrimidin-4-yl)-N4-[2-methoxy-3-(trifluoromethyl)phenyl] pyrimidine-4,6-diamine]"
9.00 to 9.70,6.00 to 7.00,"COc1cccc(Nc2cc(Nc3cc(C)nc(C)n3)ncn2)c1OC [Example 20, N4-(2,3-dimethoxyphenyl)-N6-(2,6-dimethylpyrimidin-4-yl)pyrimidine-4,6-diamine]"
8.00 to 9.00,< 6.00,"COc1cc(F)ccc1Nc1cc(Nc2cc(C)nc(C)n2)ncn1 [Example 21, N4-(2,6-dimethylpyrimidin-4-yl)-N6-(4-fluoro-2-methoxy-phenyl)pyrimidine-4,6-diamine]"
8.00 to 9.00,6.00 to 7.00,"COc1ccccc1Nc1cc(Nc2cc(C)nc(C)n2)ncn1 [Example 23, N6-(2,6-dimethylpyrimidin-4-yl)-N4-(2-methoxyphenyl)pyrimidine-4,6-diamine]"
> 9.70,7.00 to 8.00,"Cc1cc(Nc2cc(Nc3ccc(-c4cncn4C)cc3N(C)S(C)(=O)=O)ncn2)nc(C)n1 [Example 24, N-[2-[[6-[(2,6-dimethylpyrimidin-4-yl)amino]pyrimidin-4-yl]amino]-5-(3-methylimidazol-4-yl)phenyl]-N-methyl-methanesulfonamide]"
9.00 to 9.70,6.00 to 7.00,"COCc1nc(-c2cccc(Nc3cc(Nc4cc(C)nc(C)n4)ncn3)c2OC)no1 [Example 30, N4-(2,6-dimethylpyrimidin-4-yl)-N6-[2-methoxy-3-[5-(methoxymethyl)-1,2,4-oxadiazol-3-yl]phenyl]pyrimidine-4,6-diamine]"
9.00 to 9.70,6.00 to 7.00,"COc1c(Nc2cc(Nc3cc(C)nc(C)n3)ncn2)cccc1-c1ncc(F)cn1 [Example 31, N4-(2,6-dimethylpyrimidin-4-yl)-N6-[3-(5-fluoropyrimidin-2-yl)-2-methoxy-phenyl]pyrimidine-4,6-diamine]"
> 9.70,7.00 to 8.00,"COc1c(Nc2cc(Nc3cc(C)ncn3)ncn2)cccc1-c1ncn(C)n1 [Example 33, N6-[2-methoxy-3-(1-methyl-1,2,4-triazol-3-yl)phenyl]-N4-(6-methylpyrimidin-4-yl)pyrimidine-4,6-diamine]"
8.00 to 9.00,< 6.00,"COc1c(Nc2cc(Nc3cc(C)nc(C)n3)ncn2)cccc1-c1cc(C(F)(F)F)nn1C [Example 36, N6-(2,6-dimethylpyrimidin-4-yl)-N4-[2-methoxy-3-[2-methyl-5-(trifluoromethyl)pyrazol-3-yl]phenyl]pyrimidine-4,6-diamine]"
8.00 to 9.00,6.00 to 7.00,"COc1c(Nc2cc(Nc3cc(C)nc(C)n3)ncn2)cccc1-c1nc(C)nn1C [Example 40, N6-(2,6-dimethylpyrimidin-4-yl)-N4-[3-(2,5-dimethyl-1,2,4-triazol-3-yl)-2-methoxy-phenyl]pyrimidine-4,6-diamine]"
> 9.70,7.00 to 8.00,"COc1c(Nc2cc(Nc3cc(C)nc(C)n3)ncn2)cccc1-c1nnn(C)n1 [Example 41, N4-(2,6-dimethylpyrimidin-4-yl)-N6-[2-methoxy-3-(2-methyltetrazol-5-yl)phenyl]pyrimidine-4,6-diamine]"
8.00 to 9.00,< 6.00,"COc1c(Nc2cc(Nc3cc(C)nc(C)n3)ncn2)cccc1-c1ccnnc1 [Example 42, N6-(2,6-dimethylpyrimidin-4-yl)-N4-(2-methoxy-3-pyridazin-4-yl-phenyl)pyrimidine-4,6-diamine]"

# Continued, compound first:
SMILES,pKd [1],pIC50 [2]
"COc1c(Nc2cc(Nc3cc(C)nc(C)n3)ncn2)cccc1-c1cnn(C)c1 [Example 15, N4-(2,6-dimethylpyrimidin-4-yl)-N6-[2-methoxy-3-(1-methylpyrazol-4-yl)phenyl]pyrimidine-4,6-diamine]",9.00 to 9.70,7.00 to 8.00
"COc1c(Nc2cc(Nc3cc(C)nc(C)n3)ncn2)ccc(F)c1F [Example 19, N4-(3,4-difluoro-2-methoxy-phenyl)-N6-(2,6-dimethylpyrimidin-4-yl)pyrimidine-4,6-diamine]",8.00 to 9.00,< 6.00
"COc1cc(C(F)(F)F)ccc1Nc1cc(Nc2cc(C)nc(C)n2)ncn1 [Example 22, N6-(2,6-dimethylpyrimidin-4-yl)-N4-[2-methoxy-4-(trifluoromethyl)phenyl]pyrimidine-4,6-diamine]",< 8.00,6.00 to 7.00
"COc1cc(C#N)cnc1Nc1cc(Nc2cc(C)nc(C)n2)ncn1 [Example 27, 6-[[6-[(2,6-dimethylpyrimidin-4-yl)amino]pyrimidin-4-yl]amino]-5-methoxy-pyridine-3-carbonitrile]",< 8.00,< 6.00
"Cc1cc(Nc2cc(Nc3ccccc3P(C)(C)=O)ncn2)nc(C)n1 [Example 28, 4-N-(2-dimethylphosphorylphenyl)-6-N-(2,6-dimethylpyrimidin-4-yl)pyrimidine-4,6-diamine]",9.00 to 9.70,< 6.00
"COc1c(Nc2cc(Nc3cc(C)nc(C)n3)ncn2)cccc1-c1nc(C(F)(F)F)n(C)n1 [Example 29, N6-(2,6-dimethylpyrimidin-4-yl)-N4-[2-methoxy-3-[1-methyl-5-(trifluoromethyl)-1,2,4-triazol-3-yl]phenyl]pyrimidine-4,6-diamine]",8.00 to 9.00,< 6.00
"[2H]C([2H])([2H])N(c1ccccc1Nc1cc(Nc2cc(C)nc(C)n2)ncn1)S(C)(=O)=O [Example 34, N-[2-[[6-[(2,6-dimethylpyrimidin-4-yl)amino]pyrimidin-4-yl]amino]phenyl]-N-(trideuteriomethyl)methanesulfonamide]",> 9.70,> 8.00
"COc1c(Nc2cc(Nc3cc(C)nc(C)n3)ncn2)cccc1-c1nc(C)n(CC(F)(F)F)n1 [Example 38, N6-(2,6-dimethylpyrimidin-4-yl)-N4-[2-methoxy-3-[5-methyl-1-(2,2,2-trifluoroethyl)-1,2,4-triazol-3-yl]phenyl]pyrimidine-4,6-diamine]",9.00 to 9.70,7.00 to 8.00
"COc1c(Nc2cc(Nc3cc(C)nc(C)n3)ncn2)cccc1-c1nc(C)n(C)n1 [Example 39, N6-(2,6-dimethylpyrimidin-4-yl)-N4-[3-(1,5-dimethyl-1,2,4-triazol-3-yl)-2-methoxy-phenyl]pyrimidine-4,6-diamine]",9.00 to 9.70,6.00 to 7.00
"COc1c(Nc2cc(Nc3cc(C)nc(C)n3)ncn2)cccc1-c1ncn(C2COC2)n1 [Example 43, N4-(2,6-dimethylpyrimidin-4-yl)-N6-[2-methoxy-3-[1-(oxetan-3-yl)-1,2,4-triazol-3-yl]phenyl]pyrimidine-4,6-diamine]",9.00 to 9.70,6.00 to 7.00
